Test results: patent US20070105114A1, “Biomarkers of cyclin-dependent kinase modulation” (priority 2003, published 2007)
Counter-ions that a name gives are not always drawn.

Assays:
W28729 [1] = test: W28729 expression by real-time quantitative PCR in cultured A2780 tumor cells; assay type: cell-based, human; conditions: 20 nM
Protocol: Real-Time Quantitative PCR Assays: A Taqman® real-time-PCR fluorogenic assay (Applied Biosystems, Foster City, Calif., USA) was used to quantitate the levels of specific mRNA. The cdk2 inhibitor treated A2780s cells were harvested at approximately 70% confluence and total RNA was prepared using the Qiagen RNeasy 96 Kit.
Taqman® reactions were prepared as follows: 100 ng total RNA; 25 nM-750 nM Forward Primer; 25 nM-750 nM Reverse Primer; 200 nM-400 nM Taqman® Probe (fluorescent dye labeled oligonucleotide primer); 1X Buffer A (Applied Biosystems, Foster City, Calif., USA); 5.5 mM MgCl2; 300 μM DATP, dGTP, dTTP, dCTP; 1 U Amplitaq Gold; 20 U Superscript 2; 1 U RNase Inhibitor. Real-time PCR was performed using an Applied Biosystems 7700 Sequence Detection System. […]
The Sequence Detection System generates a Ct (threshold cycle) value that is used to calculate a concentration for each input messenger RNA template. Messenger RNA levels for each gene or fragment thereof of interest were normalized to GAPDH message levels to compensate for variations in total RNA quantity in the input sample. […] Ct values for the gene or fragments thereof of interest and GAPDH were inserted into the δδCt equation: Relative Quantity of Nucleic Acid Template=2^δδCt=2^(δCta-δCtb)(δCta=Ct target−Ct GAPDH, δCtb=Ct reference−Ct GAPDH) which was used to calculate a normalized relative message level. […]

A2780 xenografts = test: Anti-tumor efficacy in A2780 xenografts (minimum efficacious dose); assay type: in vivo, mouse
Protocol: The human ovarian carcinoma xenograft A2780s were maintained in Balb/c nu/nu nude mice. Tumors were propagated as subcutaneous (sc) transplants using tumor fragments obtained from donor mice. For the cdk2 inhibitor treatment, tumors were allowed to grow to the pre-determined size window of approximately 100-200 mg (tumors outside the range were excluded) and animals were evenly distributed to various treatment and control groups (n=6). Treatment of each animal was based on individual body weight. The cdk2 inhibitor was first dissolved in a mixture of Cremophor®/ethanol (50:50). One hour prior to administration, the cdk2 inhibitor was diluted with water so that the dosing solutions contained the specified excipient composition, i.e., Cremophor®/ethanol/water (1:1:8, v/v). The volume of all compounds injected was 0.01 ml/gm of mice. The cdk2 inhibitor was administered as a bolus injection intraperitoneal at doses of 36 and 18 mg/kg. Tumor and plasma were sampled at the time points of 4, 7, and 24 hour post treatment. Plasma sample was frozen immediately at −80° C. for pharmacokinetic analysis, and tumor sample was preserved in RNAase free buffer for pharmacogenomic analysis. […] At the minimum efficacious dose (MED) of 18 mg/kg/day, the induction was sustained for more than 6 hours. […]

W28729 [2] = test: Clinical study CA174-002 (24 hr infusion), W28729 expression in patient PBMC by RT-PCR; assay type: in vivo, human; conditions: patients
Protocol: Patient inclusion criteria: The patient inclusion criteria included: primary solid malignancy refractory to current therapy and adequate bone marrow, hepatic, and renal function. Treatments: Two different treatments were undertaken: (i) 174-001 Study: 1 hr infusion of BMS-387032 q 3 wks; and (ii) 174-002 Study: 24 hr infusion of BMS-387032 q 3 wks. The sampling times were pre-dose, and 2, 6, 24 hour post-dose. W28729 Expression Analysis: RT-PCR. Patient blood samples were collected in PAXgene™ Blood Collection Tubes (Qiagen, catalog #762155). Total RNA was isolated following the manufacturer's instructions using a PAXgene™ blood RNA Kit (Qiagen, catalog #762134). W28729 and GAPDH (housekeeping gene) RNA abundance was measured by Taqman assays, using an ABI PRISM 7900 HT Sequence Detection System. W28729 abundance was normalized relative to GAPDH. Primer and probe sequences are as shown below.

W28729 [3] = test: W28729 expression by real-time quantitative PCR in PBMC treated in vitro; assay type: cell-based; conditions: human PBMC in vitro, 10n-M, 4 hours
Protocol: Taqman® reactions were prepared as follows: 100 ng total RNA; 25 nM-750 nM Forward Primer; 25 nM-750 nM Reverse Primer; 200 nM-400 nM Taqman® Probe (fluorescent dye labeled oligonucleotide primer); 1X Buffer A (Applied Biosystems, Foster City, Calif., USA); 5.5 mM MgCl2; 300 μM DATP, dGTP, dTTP, dCTP; 1 U Amplitaq Gold; 20 U Superscript 2; 1 U RNase Inhibitor. Real-time PCR was performed using an Applied Biosystems 7700 Sequence Detection System. Conditions were as follows: 48° C. for 20 minutes (reverse transcription), 95° C. for 10 minutes (denaturation and activation of Amplitaq Gold), 40 cycles of PCR (95° C. for 15 seconds, 60° C. for 1 minutes).
The Sequence Detection System generates a Ct (threshold cycle) value that is used to calculate a concentration for each input messenger RNA template. Messenger RNA levels for each gene or fragment thereof of interest were normalized to GAPDH message levels to compensate for variations in total RNA quantity in the input sample. This was done by generating GAPDH Ct values for each cell line. Ct values for the gene or fragments thereof of interest and GAPDH were inserted into the δδCt equation: Relative Quantity of Nucleic Acid Template=2^δδCt=2^(δCta-δCtb)(δCta=Ct target−Ct GAPDH, δCtb=Ct reference−Ct GAPDH) which was used to calculate a normalized relative message level. […]

## CC(C)(C)c1cnc(CSc2cnc(NC(=O)C3CCNCC3)s2)o1 [cdk2 inhibitor, N-5-[[5-(1,1-Dimethylethyl)-2-oxazolyl]methyl]thio]-2-thiazolyl-4-piperidinecarboxamide, 0.5-L-tartaric acid salt]
W28729 [1]
  induction of W28729: induction of W28729 occurred
  time after treatment at which W28729 induction was detected: 1 h
A2780 xenografts; bolus i.p.
  minimum efficacious dose (MED): 18 mg/kg/day
A2780 xenografts; infusion regimen
  minimum efficacious dose: 40 mg/kg
W28729 [2]
  W28729 induction in PBMC: modest induction of W28729 expression
  time W28729 induction was sustained following end of infusion: 6 h
W28729 [3]
  W28729 expression change: Upregulation of W28729 expression
